Experimental data reported in the NIST ThermoML archive (doi:10.1016/j.jct.2013.02.017).

Settings: relaxation calorimetry - Quantum Design PPMS; for molar entropy: 101.33 kPa

O=P([O-])([O-])[O-].[Fe+3] [iron(III) phosphate]
Settings | molar entropy [J/K/mol]
1 K, Crystal 2 | 0.001252
2 K, Crystal 2 | 0.01157
3 K, Crystal 2 | 0.0497
4 K, Crystal 2 | 0.1381
5 K, Crystal 2 | 0.2911
6 K, Crystal 2 | 0.5136
7 K, Crystal 2 | 0.8015
8 K, Crystal 2 | 1.143
9 K, Crystal 2 | 1.528
10 K, Crystal 2 | 1.948
11 K, Crystal 2 | 2.4
12 K, Crystal 2 | 2.878
13 K, Crystal 2 | 3.381
14 K, Crystal 2 | 3.904
15 K, Crystal 2 | 4.446
16 K, Crystal 2 | 5.012
17 K, Crystal 2 | 5.603
18 K, Crystal 2 | 6.223
19 K, Crystal 2 | 6.877
20 K, Crystal 2 | 7.545
25 K, Crystal 1 | 11.49
30 K, Crystal 1 | 14.26
35 K, Crystal 1 | 16.51
40 K, Crystal 1 | 18.7
45 K, Crystal 1 | 20.89
50 K, Crystal 1 | 23.09
55 K, Crystal 1 | 25.3
60 K, Crystal 1 | 27.52
65 K, Crystal 1 | 29.74
70 K, Crystal 1 | 31.97
75 K, Crystal 1 | 34.2
80 K, Crystal 1 | 36.44
85 K, Crystal 1 | 38.66
90 K, Crystal 1 | 40.88
95 K, Crystal 1 | 43.09
100 K, Crystal 1 | 45.3
110 K, Crystal 1 | 49.7
120 K, Crystal 1 | 54.04
130 K, Crystal 1 | 58.32
140 K, Crystal 1 | 62.54
150 K, Crystal 1 | 66.7
160 K, Crystal 1 | 70.79
170 K, Crystal 1 | 74.82
180 K, Crystal 1 | 78.8
190 K, Crystal 1 | 82.72
200 K, Crystal 1 | 86.59
210 K, Crystal 1 | 90.41
220 K, Crystal 1 | 94.19
230 K, Crystal 1 | 97.92
240 K, Crystal 1 | 101.61
250 K, Crystal 1 | 105.25
260 K, Crystal 1 | 108.86
270 K, Crystal 1 | 112.42
273.15 K, Crystal 1 | 113.53
280 K, Crystal 1 | 115.93
290 K, Crystal 1 | 119.41
298.15 K, Crystal 1 | 122.21
300 K, Crystal 1 | 122.84

Settings | Triple point temperature [K]
Crystal 2 | 25
